In brackets after ≈: the same amount, converted by molar mass.
The molecules below were run on Aspergillus fumigatus (assay: MIC measurement, YAG medium). Details: Aspergillus fumigatus, read-out: MIC A. fumigatus.
Assay type: cell-based
Experimental: Between 1 and 5 mgs of compound were accurately weighed out into a sterile Eppendorf tube. The compound was dissolved in DMSO to give a solution containing […]. Tubes were stored at −20° C. until required.
On the day of testing thawed solutions were vortex mixed to ensure homogeneity. 30 μL of solution was removed and added to 570 μL of sterile water in a separate sterile Eppendorf. The thoroughly mixed solution was used to prepare a series of doubling dilutions in water, in a deep well plate. Thirteen replicate plates were prepared using a Minitrak by aspirating 20 μL from each well into eleven clear polystyrene 96 well plates.
Spores of Aspergillus spp. (Aspergillus fumigatus [two strains], Aspergillus terreus [two strains], Aspergillus niger and Aspergillus flavus) were harvested from cultures grown on Sabarauds agar for 5 days, and resuspended in PBS/Tween 80 to approx 1×10^7 cfu/mL. Other filamentous fungi (Absidia corymbifera, Fusarium solani, Rhizomucor, Scedosporium spp., Trichophyton spp.), were grown on Sabarauds agar for 2-10 days and spores/hyphae resuspended in PBS/Tween to give approx 1×10^7 cfu/mL. Candida species (Candida albicans, Candida glabrata, Candida krusei, Candida parapsilosis and Candida tropicalis) were grown on Sabarauds agar, cells were harvested from the agar using a sterile loop and resuspended in PBS/Tween 80 to approx 1×10^6 cfu/mL. Each organism suspension was diluted in RPMI medium, containing 2% glucose and 0.135 M MOPS buffer (pH 7.0) to 0.5-2×10^4 cfu/mL for Aspergillus spp. and other filamentous fungi and 0.5-2×10^3 cfu/mL for yeast. 80 μL of an organism suspension was added to each well of the plate containing drug dilutions.
This produced MIC plates with a drug range 50-0.05 mg/L and organism inocula of 1-2×10^4 cfu/mL for Aspergillus spp. and other filamentous fungi and 1-2×10^3 cfu/mL for yeasts. All plates were incubated for 24-48 hrs at 35° C. Growth was assessed by monitoring the optical density at 485 nm for each well. The MIC of a compound is the lowest drug concentration that inhibits growth of an organism by >80% compared with a drug free control. MICs are recorded as mg/L. Other growth media can be used for susceptibility testing, and the activity of the described compounds can also be assessed in a medium comprising 1% glucose, 1% ammonium chloride and 0.5% yeast extract (YAG medium). To perform MIC tests in this medium, dilutions of compounds are prepared in microtitre plates as described above. Fungal strains to be tested are grown and harvested in an identical manner to that described above, each organism suspension is then diluted in YAG medium to 0.5-2×10^4 cfu/mL for Aspergillus spp. and other filamentous fungi and 0.5-2×10^3 cfu/mL for yeast. 80 μL of an organism suspension was added to each well of the plate containing drug dilutions. This produced MIC plates with a drug range 50-0.05 mg/L and organism inocula of 1-2×10^4 cfu/mL for Aspergillus spp. and other filamentous fungi and 1-2×10^3 cfu/mL for yeasts. All plates were incubated for 24 hrs at 35° C. Growth was assessed by monitoring the optical density at 485 nm for each well. The MIC of a compound is the lowest drug concentration that inhibits growth of an organism by >70% compared with a drug free control. MICs are recorded as mg/L. In cases where the MIC of an organism is […] mg/L the MIC is repeated using a concentration range of 0.5-0.0005 mg/L. MIC tests in YAG medium have more clear-cut endpoints and have slightly lower MICs than those performed in RPMI medium.
The following organisms were tested: Absidia corymbifera, Aspergillus flavus, Aspergillus fumigatus AF293 and AF210, Aspergillus niger, Aspergillus terreus AT4 and AT49, Candida albicans, Candida glabrata, Candida krusei, Candida parapsilosis, Candida tropicalis, Fusarium solani, Rhizomucor sp., Scedosporium apiospermum, Scedosporium prolificans, Trichophyton mentagrophytes, and Trichophyton rubrum.

| SMILES | MIC [µg/mL] |
| --- | --- |
| O=C1Cc2cc(NC(=O)C(=O)c3c(-c4ccccc4)cc4ccccn34)ccc2N1 [Example 9, 2-Oxo-N-(2-oxo-2,3-dihydro-1H-indol-5-yl)-2-(2-phenyl-indolizin-3-yl)-acetamide] | > 10 |
| CCN(CC)C(=O)Oc1cc(-c2ccc(NC(=O)C(=O)c3c(-c4ccccc4)cc4ccccn34)cc2)on1 [Example 27, Diethyl-carbamic acid-5-{4-[2-oxo-2-(2-phenyl-indolizin-3-yl)-aeetylamino]-phenyl}-isoxazol-3-yl ester] | < 1 |

Same assay, conditions: Aspergillus fumigatus; YAG medium; MIC banded into grades; strain AF293; read-out: MIC A. fumigatus

| SMILES | MIC [µg/mL] |
| --- | --- |
| O=C(Nc1ccc(NCCOc2ccccn2)cc1)C(=O)c1c(-c2ccccc2)cc2ccccn12 [Example 90, 2-Oxo-2-(2-phenyl-indolizin-3-yl)-N-{4-[2-(pyridin-2-yloxy)-ethylamino]-phenyl}-acetamide] | < 1 |
| CC(C)c1nc(C(C)(C)c2ccc(NC(=O)C(=O)c3c(-c4ccccc4)cc4ccccn34)cc2)cn1C [Example 16, N-{4-[1-(2-isopropyl-1-methyl-1H-imidazol-4-yl)-1-methyl-ethyl]-phenyl}-2-oxo-2-(2-phenyl-indolizin-3-yl)-acetamide] | 1 to 10 (≈ 1.98 to 19.8 µM) |
| COc1ccc(NC(=O)C(=O)c2c(C)c(-c3ccccc3)c3ccccn23)cc1 [Example 6, N-(4-methoxy-phenyl)-2-(2-methyl-1-phenyl-indolizin-3-yl)-2-oxo-acetamide] | > 10 |
| Cc1nccn1CCCOc1ccc(NC(=O)C(=O)c2c(-c3ccccc3)cc3ccccn23)cc1C(C)C [Example 20, N-{3-Isopropyl-4-[3-(2-methyl-imidazol-1-yl)-propoxy]-phenyl}-2-oxo-2-(2-phenyl-indolizin-3-yl)-acetamide] | 1 to 10 (≈ 1.92 to 19.2 µM) |
| C=C(C)CN1CCN(c2ccc(NC(=O)C(=O)c3c(-c4ccc(N5CCOCC5)cc4)cc4ccccn34)cc2)CC1 [Example 40, N-{4-[4-(2-Methyl-allyl)-piperazin-1-yl]-phenyl}-2-[2-(4-morpholin-4-yl-phenyl)-indolizin-3-yl]-2-oxo-acetamide] | > 10 |
| Cc1cc(NC(=O)C(=O)c2c(-c3ccccc3)cc3ccccn23)ccc1OCCCn1ccnc1C(C)C [Example 12, N-{4-[3-(2-Isopropyl-imidazol-1-yl)-propoxy]-3-methyl-phenyl}-2-oxo-2-(2-phenyl-indolizin-3-yl)-acetamide] | 1 to 10 (≈ 1.92 to 19.2 µM) |
| CS(=O)(=O)NC(=O)c1ccc(NC(=O)C(=O)c2c(-c3ccccc3)cc3ccccn23)cc1 [Example 5, N-(4-methanesulfonylaminocarbonyl-phenyl)-2-oxo-2-(2-phenyl-indolizin-3-yl)-acetamide] | > 10 |
| Cc1cc(C)nc(N(C)CCCN(C)c2ccc(NC(=O)C(=O)c3c(-c4ccccc4)cc4ccccn34)cc2)c1 [Example 67, N-[4-({3-[(4,6-dimethyl-pyridin-2-yl)-methyl-amino]-propyl}-methyl-amino)-phenyl]-2-oxo-2-(2-phenyl-indolizin-3-yl)-acetamide] | < 1 |
| CC(C)(C)CN1CCN(c2ccc(NC(=O)C(=O)c3c(-c4ccccc4)cc4ccccn34)nc2)CC1 [Example 50, N-{5-[4-(2,2-Dimethyl-propyl)-piperazin-1-yl]-pyridin-2-yl}-2-oxo-2-(2-phenyl-indolizin-3-yl)-acetamide] | < 1 |
| Cc1cc(C)nc(N(C)CCNc2ccc(NC(=O)C(=O)c3c(-c4ccccc4)cc4ccccn34)cc2)c1 [Example 78, N-(4-{2-[(4,6-Dimethyl-pyridin-2-yl)-methyl-amino]-ethylamino}-phenyl)-2-oxo-2-(2-phenyl-indolizin-3-yl)-acetamide] | < 1 |

Second part, the molecule after the results:

| MIC [µg/mL] | SMILES |
| --- | --- |
| < 1 | Cc1cc(C)nc(N2CCN(c3ccc(NC(=O)C(=O)c4c(C(C)C)cc5ccccn45)cc3)CC2)c1 [Example 61, N-{4-[4-(4,6-Dimethyl-pyridin-2-yl)-piperazin-1-yl]-phenyl}-2-(2-isopropyl-indolizin-3-yl)-2-oxo-acetamide] |
| < 1 | Cc1cc(C)nc(N2CCN(c3ccc(NC(=O)C(=O)c4c(-c5ccccc5)cc5ccccn45)c(C)c3)CC2)c1 [Example 80, N-{4-[4-(4,6-Dimethyl-pyridin-2-yl)-piperazin-1-yl]-2-methyl-phenyl}-2-oxo-2-(2-phenyl-indolizin-3-yl)-acetamide] |
| < 1 | Cc1cc(C)nc(N2CCN(c3ccc(NC(=O)C(=O)c4c(C5CCOCC5)cc5ccccn45)cc3)CC2)c1 [Example 66, N-{4-[4-(4,6-Dimethyl-pyridin-2-yl)-piperazin-1-yl]-phenyl}-2-oxo-2-[2-(tetrahydro-pyran-4-yl)-indolizin-3-yl]-acetamide] |
| < 1 | Cc1cc(C)nc(N2CCN(c3cccc(NC(=O)C(=O)c4c(-c5ccccc5)cc5ccccn45)c3)CC2)c1 [Example 48, N-{3-[4-(4,6-Dimethyl-pyridin-2-yl)-piperazin-1-yl]-phenyl}-2-oxo-2-(2-phenyl-indolizin-3-yl)-acetamide] |
| < 1 | Cc1cc(C)nc(NCCNc2ccc(NC(=O)C(=O)c3c(-c4ccccc4)cc4ccccn34)cc2)c1 [Example 92, N-{4-[2-(4,6-dimethyl-pyridin-2-yl-amino)-ethylamino]-phenyl}-2-oxo-2-(2-phenyl-indolizin-3-yl)-acetamide] |
| < 1 | Cc1cc(C)nc(N2CCN(c3ccc(NC(=O)C(=O)c4c(-c5ccccc5)cc5ccccn45)cc3)CC2)c1 [Example 21, N-{4-[4-(4,6-Dimethyl-pyridin-2-yl)-piperazin-1-yl]-phenyl}-2-oxo-2-(2-phenyl-indolizin-3-yl)-acetamide] |
| < 1 | CCc1cccc(N2CCN(c3ccc(NC(=O)C(=O)c4c(-c5ccccc5)cc5ccccn45)cc3)CC2)n1 [Example 73, N-{4-[4-(6-ethyl-pyridin-2-yl)-piperazin-1-yl]-phenyl}-2-oxo-2-(2-phenyl-indolizin-3-yl)-acetamide] |
| > 10 | Cc1cc(C)nc(N2CCN(c3ccc(NC(=O)C(=O)c4c(C5CCN(C)CC5)cc5ccccn45)cc3)CC2)c1 [Example 63, N-{4-[4-(4,6-Dimethyl-pyridin-2-yl)-piperazin-1-yl]-phenyl}-2-[2-(1-methyl-piperidin-4-yl)-indolizin-3-yl]-2-oxo-acetamide] |
| > 10 | Cc1cc(C)nc(N2CCC(O)(c3ccc(NC(=O)C(=O)c4c(-c5ccccc5)cc5ccccn45)cc3)CC2)c1 [Example 79, N-[4-(4-hydroxy-4′,6′-dimethyl-3,4,5,6-tetrahydro-2H-[1,2′]-bipyridinyl-4-yl)-phenyl]-2-oxo-2-(2-phenyl-indolizin-3-yl)-acetamide] |
| < 1 | O=C(Nc1ccc(N2CCN(c3cccnc3)CC2)cc1)C(=O)c1c(-c2ccccc2)cc2ccccn12 [Example 59, 2-Oxo-2-(2-phenyl-indolizin-3-yl)-N-[4-(4-pyridin-3-yl-piperazin-1-yl)-phenyl]-acetamide] |
| < 1 | Cc1cc(C)nc(N2CCN(c3ccc(NC(=O)C(=O)c4c(-c5ccccc5)cc5ccc(F)cn45)cc3)CC2)c1 [Example 32, N-{4-[4-(4,6-Dimethyl-pyridin-2-yl)-piperazin-1-yl]-phenyl}-2-(6-fluoro-2-phenyl-indolizin-3-yl)-2-oxo-acetamide] |
| < 1 | Cc1cc(C)nc(N2CCCN(c3ccc(NC(=O)C(=O)c4c(-c5ccccc5)cc5ccccn45)cc3)CC2)c1 [Example 54, N-{4-[4-(4,6-Dimethyl-pyridin-2-yl)-[1,4]diazepan-1-yl]-phenyl}-2-oxo-2-(2-phenyl-indolizin-3-yl)-acetamide] |
| < 1 | COCCOCCOc1cc(C)nc(N2CCN(c3ccc(NC(=O)C(=O)c4c(-c5ccccc5)cc5ccccn45)cc3)CC2)c1 [Example 76, N-[4-(4-{4-[2-(2-methoxy-ethoxy)-ethoxyl]-6-methyl-pyridin-2-yl}-piperazin-1-yl)-phenyl]-2-oxo-2-(2-phenyl-indolizin-3-yl)-acetamide] |

— patent publication US8604029B2, “2-[(2-substituted)-indolizin-3-yl]-2-oxo-acetamide derivatives as antifungal agents” (F2G Ltd British Body Corporate, priority 2006, dated 2013)
